Assay results as given in PubChem BioAssay AID1963421 (Molecular Pharmacology Branch, DTP, NCI, 2024).

System: 519858-162-T-J1-PDC complex spheroid growth, % test/control
Test: Anticancer human tumor 519858-162-T-J1-PDC patient-derived colon adenocarcinoma cell line growth inhibition [Asc]
Conditions: for IC50: curve of first compound; for viability, T/C: stronger effect = lower value; active = viability on the fitted dose curve at most 10% of control; inactive = the rest
Procedure: Multicellular complex tumor spheroid response to apoptosis pathway targeting inhibitors Alrizomadlin, Pelcitoclax, and Dasminapant in combination with a variety of drugs and investigational agents in selected tumor cell lines
The MDM2 inhibitor alrizomadlin, the Bcl-2/Bcl-xL inhibitor pelcitoclax, and the IAPs inhibitor dasminapant were evaluated both individually and in combination with standard of care and investigational anticancer small molecules within a complex spheroid model of solid tumors. . Complex spheroids include a stromal component modeled by human endothelial cells (HUVEC) and fibroblasts modeled by human mesenchymal stem cells (MSCs). The concentration ranges selected for each drug and investigational agent were based upon clinically achievable concentrations if the clinical Cmax of the agent was known.
Compounds. The drugs and investigational agents: alrizomadlin (APG-115; NSC831270), pelcitoclax (APG-1252; NSC835773), dasminapant (APG-1387;NSC834197), TAK-243 (NSC785004), copanlisib (NSC809693), olaparib (NSC753686), talazoparib (NSC767125), cobimetinib (NSC 768068), eltanexor (KPT-8602, NSC 794443), abemaciclib (NSC 768073), sotorasib (NSC818433), adagrasib (NSC 831453), MRTX-1133 (NSC 836407), Iadademestat (ORY1001, NSC 806812), and RMC-4630 (NSC839698), were obtained from the NCI Developmental Therapeutics Program Chemical Repository. The FDA-approved anticancer drug set is available from the Developmental Therapeutics Program at https://dtp.cancer.gov/organization/dscb/obtaining/available plates.htm. […] The stock solutions were prepared in dimethyl sulfoxide (DMSO, Sigma-Aldrich, St. Louis, MO, cat. D2650) at 800-fold the tested concentration and stored at -70 degrees C prior to their use. All drugs and investigational agents were tested over a range starting from a high concentration at or near the clinical Cmax and decreasing in half-log increments. If the clinical Cmax for an agent had not been determined, the highest concentration tested was 10 microM.
The patient-derived cancer (PDC) cell lines include five colon adenocarcinomas: 186277-243-T-J2-PDC, 616215-338-R-J1-PDC, 439559-082-T-J2-PDC, 463943-066-T-J2-PDC, and 519858-162-T-J1-PDC; three pancreatic carcinomas: 323965-272-R-J2-PDC, 521955-158-R6-J3-PDC, and 521955-158-R2-J5-PDC; two uterine sarcomas: 327498-152-R-J2-PDC and 993429-296-R-J1-PDC; two rhabdomyosarcomas: 755483-174-R-J1-PDC and 772245-204-R-J1-PDC; two soft tissue sarcomas: 126254-015-R-J1-PDC and 494315-158-R-J1-PDC; two malignant fibrous histiocytomas: 317291-083-R-J1-PDC and 596521-263-R-J1-PDC; two breast carcinomas: 171881-019-R-J1-PDC and 885512-296-R-J2-PDC; and one ovarian carcinoma: 6556581-035-R-J-PDC were obtained from the NCI PDMR, (https://pdmr.cancer.gov). The established cell lines HSSY-2 synovial sarcoma (RRID:CVCL 8719), SYO-1 synovial sarcoma (RRID:CVCL_7146), MPNST malignant peripheral neural sheath tumor were obtained from the Sloan Kettering Institute. The following established cell lines were purchased from the American Type Culture Collection (ATCC, Manassas, VA), Sor the received from the NCI repository:, PANC-1 pancreatic carcinoma (CRL-1469, RRID:CVCL_0480), OVCAR-5 ovarian carcinoma (RRID:CVCL_1628), OVCAR-8 ovarian carcinoma (RRID:CVCL_1629), , MCF-7 breast carcinoma (CRL-12584, RRID:CVCL_0031), MDA-MB-231 breast carcinoma (CRL-12532, RRID:CVCL_0062), NCI-H1876 small cell lung carcinoma (CRL-5902, RRID:CVCL_1503), NCI-H510A small cell lung carcinoma (HTB-184, RRID:CVCL_1565), NCI-H1417 (CRL-5869, RRID:CVCL_1469), and NCI-H196 small cell lung carcinoma (CRL-5823, RRID:CVCL_1509). Dr. Peter Houghton (Greehey Children's Cancer Research Institute, University of Texas Health Science Center, San Antonio, TX) provided Rh-18 rhabdomyosarcoma (RRID:CVCL_1659). Pooled donor human umbilical vein endothelial cells (HUVEC, Lonza, cat. CC-2519) and human mesenchymal stem cells (hMSC, Lonza, cat. PT-2501) were purchased from Lonza (Walkersville, MD).
Cell Culture. […]
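Note: seven day drug exposure begun three days after spheroid seeding.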
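Throughout, for viability, T/C: 100% = DMSO vehicle wells and lower values mean less viable spheroid.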

NC(=O)C(=Cn1cnc(-c2cc(C(F)(F)F)cc(C(F)(F)F)c2)n1)c1cncnc1 + CNC(C)C(=O)NC1CN(S(=O)(=O)c2cccc(S(=O)(=O)N3CCC4CCC(C(=O)NC(c5ccccc5)c5ccccc5)N4C(=O)C(NC(=O)C(C)NC)C3)c2)CCC2CCC(C(=O)NC(c3ccccc3)c3ccccc3)N2C1=O
> 300 nM: IC50 (second compound 0.00316 µM) | IC50 (second compound 0.01 µM) | IC50 (second compound 0.0316 µM) | IC50 (second compound 0.1 µM) | IC50 (second compound 0.316 µM) | IC50 (second compound 1 µM)
inactive: viability, T/C (second compound 0.00316 µM, first compound 0.000949 µM) 139% | viability, T/C (second compound 0.00316 µM, first compound 0.003 µM) 116% | viability, T/C (second compound 0.00316 µM, first compound 0.00949 µM) 102% | viability, T/C (second compound 0.00316 µM, first compound 0.03 µM) 83.8% | viability, T/C (second compound 0.00316 µM, first compound 0.0949 µM) 71.7% | viability, T/C (second compound 0.00316 µM, first compound 0.3 µM) 71.2% | viability, T/C (second compound 0.01 µM, first compound 0.000949 µM) 91.2% | viability, T/C (second compound 0.01 µM, first compound 0.003 µM) 80% | viability, T/C (second compound 0.01 µM, first compound 0.00949 µM) 67.5% | viability, T/C (second compound 0.01 µM, first compound 0.03 µM) 70.7% | viability, T/C (second compound 0.01 µM, first compound 0.0949 µM) 67% | viability, T/C (second compound 0.01 µM, first compound 0.3 µM) 55.6% | viability, T/C (second compound 0.0316 µM, first compound 0.000949 µM) 87% | viability, T/C (second compound 0.0316 µM, first compound 0.003 µM) 85.7% | viability, T/C (second compound 0.0316 µM, first compound 0.00949 µM) 80.1% | viability, T/C (second compound 0.0316 µM, first compound 0.03 µM) 54.8% | viability, T/C (second compound 0.0316 µM, first compound 0.0949 µM) 65% | viability, T/C (second compound 0.0316 µM, first compound 0.3 µM) 63.5% | viability, T/C (second compound 0.1 µM, first compound 0.000949 µM) 99.2% | viability, T/C (second compound 0.1 µM, first compound 0.003 µM) 96.3% | viability, T/C (second compound 0.1 µM, first compound 0.00949 µM) 98.4% | viability, T/C (second compound 0.1 µM, first compound 0.03 µM) 67.8% | viability, T/C (second compound 0.1 µM, first compound 0.0949 µM) 50.1% | viability, T/C (second compound 0.1 µM, first compound 0.3 µM) 71.2% | viability, T/C (second compound 0.316 µM, first compound 0.000949 µM) 86.3% | viability, T/C (second compound 0.316 µM, first compound 0.003 µM) 105% | viability, T/C (second compound 0.316 µM, first compound 0.00949 µM) 67.1% | viability, T/C (second compound 0.316 µM, first compound 0.03 µM) 65.7% | viability, T/C (second compound 0.316 µM, first compound 0.0949 µM) 69.5% | viability, T/C (second compound 0.316 µM, first compound 0.3 µM) 67.6% | viability, T/C (second compound 1 µM, first compound 0.000949 µM) 88.4% | viability, T/C (second compound 1 µM, first compound 0.003 µM) 71.4% | viability, T/C (second compound 1 µM, first compound 0.00949 µM) 76.5% | viability, T/C (second compound 1 µM, first compound 0.03 µM) 51.4% | viability, T/C (second compound 1 µM, first compound 0.0949 µM) 72.3% | viability, T/C (second compound 1 µM, first compound 0.3 µM) 109%

Cc1nc(N2CCC3(CC2)COC(C)C3N)c(CO)nc1Sc1ccnc(N)c1Cl (centres undefined) + CCN1C(C(=O)NC23CCC(C(=O)O)(CC2)CC3)C(c2cccc(Cl)c2F)C2(C(=O)Nc3cc(Cl)ccc32)C12CCCCC2
inactive: viability, T/C (second compound 0.00949 µM, first compound 0.00949 µM) 87% | viability, T/C (second compound 0.00949 µM, first compound 0.03 µM) 91.7% | viability, T/C (second compound 0.00949 µM, first compound 0.0949 µM) 111% | viability, T/C (second compound 0.00949 µM, first compound 0.3 µM) 57.3% | viability, T/C (second compound 0.00949 µM, first compound 0.949 µM) 43.6% | viability, T/C (second compound 0.00949 µM, first compound 3 µM) 45.3% | viability, T/C (second compound 0.03 µM, first compound 0.00949 µM) 85.3% | viability, T/C (second compound 0.03 µM, first compound 0.03 µM) 67% | viability, T/C (second compound 0.03 µM, first compound 0.0949 µM) 101% | viability, T/C (second compound 0.03 µM, first compound 0.3 µM) 85.6% | viability, T/C (second compound 0.03 µM, first compound 0.949 µM) 96% | viability, T/C (second compound 0.03 µM, first compound 3 µM) 63.3% | viability, T/C (second compound 0.0949 µM, first compound 0.00949 µM) 63.2% | viability, T/C (second compound 0.0949 µM, first compound 0.03 µM) 110% | viability, T/C (second compound 0.0949 µM, first compound 0.0949 µM) 70.5% | viability, T/C (second compound 0.0949 µM, first compound 0.3 µM) 66.6% | viability, T/C (second compound 0.0949 µM, first compound 0.949 µM) 73.7% | viability, T/C (second compound 0.0949 µM, first compound 3 µM) 57.5% | viability, T/C (second compound 0.3 µM, first compound 0.00949 µM) 119% | viability, T/C (second compound 0.3 µM, first compound 0.03 µM) 71% | viability, T/C (second compound 0.3 µM, first compound 0.0949 µM) 54.5% | viability, T/C (second compound 0.3 µM, first compound 0.3 µM) 80.6% | viability, T/C (second compound 0.3 µM, first compound 0.949 µM) 47.6% | viability, T/C (second compound 0.3 µM, first compound 3 µM) 52.5% | viability, T/C (second compound 0.949 µM, first compound 0.00949 µM) 67.6% | viability, T/C (second compound 0.949 µM, first compound 0.03 µM) 66.8% | viability, T/C (second compound 0.949 µM, first compound 0.0949 µM) 83.1% | viability, T/C (second compound 0.949 µM, first compound 0.3 µM) 47.4% | viability, T/C (second compound 0.949 µM, first compound 0.949 µM) 73.5% | viability, T/C (second compound 0.949 µM, first compound 3 µM) 59.2% | viability, T/C (second compound 3 µM, first compound 0.00949 µM) 69.5% | viability, T/C (second compound 3 µM, first compound 0.03 µM) 92.5% | viability, T/C (second compound 3 µM, first compound 0.0949 µM) 77.2% | viability, T/C (second compound 3 µM, first compound 0.3 µM) 73.5% | viability, T/C (second compound 3 µM, first compound 0.949 µM) 67% | viability, T/C (second compound 3 µM, first compound 3 µM) 72.5%
> 3000 nM: IC50 (second compound 0.03 µM) | IC50 (second compound 0.0949 µM) | IC50 (second compound 0.3 µM) | IC50 (second compound 0.949 µM) | IC50 (second compound 3 µM)
578 nM: IC50 (second compound 0.00949 µM)
